Assays:
MV4-11 cells = assay: Antiproliferative activity, MTT assay; format: cell-based, human; details: for Selectivity index SI, MV4-11: SI = IC50 BALB/3T3 / IC50 MV4-11; for IC50: 72 h exposure, MTT, mean ± SD, n.a = no activity in concentration of 5, 25, 125, 625 μM
Procedure: Human biphenotypic B myelomonocytic leukemia MV4-11, human colon cancer LoVo cell line and normal mouse fibroblast BALB/3T3 cells were obtained from American Type Culture Collection (Rockville, Maryland, USA), human lung carcinoma A549 cells were obtained from European Collection of Authenticated Cell Cultures (UK). All the cell lines are being maintained at the Hirszfeld Institute of Immunology and Experimental Therapy, PAS, Wroclaw, Poland and were cultured according the procedure described before.
Cell lines were cultured according to the protocol described before. MV4-11 cells were cultured in RPMI 1640 medium (Gibco, UK) with 1.0 mM sodium pyruvate, and 10% fetal bovine serum (FBS) (all from Sigma-Aldrich, Germany). A549, LoVo and LoVo/DX cells were cultured in RPMI 1640 + Opti-MEM (1:1) (both from Gibco, UK) supplemented with 5% fetal bovine serum, 1.0 mM sodium pyruvate (LoVo and LoVo/DX cells) (all from Sigma Aldrich Germany) and 0.1 μg/mL doxorubicin chloride (Accord) (only LoVo/DX cells). BALB/3T3 cells in Dulbecco medium (IIET, Poland) supplemented with 10% fetal bovine serum (Sigma-Aldrich, Germany). All culture media were supplemented with 2 mM L-glutamine (Sigma-Aldrich, Germany), 100 units/mL penicillin, and 100 µg/mL streptomycin (both from Polfa Tarchomin S.A., Poland). All cell lines were grown at 37 °C with 5% CO2 humidified atmosphere.
The solutions of the compounds (50 mM) were prepared by dissolving the substances in DMSO (Sigma Aldrich, Germany). Then the tested compounds were diluted in culture medium to reach the final concentrations of 625, 125, 25 and 5 μM. Before adding of the tested compounds (24 h prior), the cells were plated in 96-well plates (Sarstedt, Germany) at a density of 1 × 10^4 or 0.5 × 10^4 (A549) cells per well. The assay was performed after 72 h of exposure to 625, 125, 25 and 5 μM of the tested agents. The in vitro cytotoxic effect of all agents was examined using the MTT (MV4-11) or SRB assay, described previously. The results were calculated as an IC50 (inhibitory concentration 50%) the concentration of tested agent, which is cytotoxic for 50% of the cancer cells. Each compound in each concentration was tested in triplicate in a single experiment, which was repeated 3–5 times.

Myzus persicae = assay: Aphid settling (choice test) on treated vs control leaves of Brassica rapa subsp. pekinensis; format: in vivo; details: for Mean number of aphids settled on treated (test) leaf: 0.1% solution in 70% ethanol, mean (± SD), n = 8, 20 aphids/replicate; for Effect on aphid settling behavior (deterrent / attractant): choice test, 0.1% solution, significance p < 0.05 Student t-test
Procedure: The peach potato aphids Myzus persicae (Sulzer) and the Chinese cabbage Brassica rapa subsp. pekinensis (Lour.) Hanelt were reared in laboratory at 20 °C, 65% r.h., and L16:8D photoperiod. One to seven days old apterous females of M. persicae and 3-week old plants with 4–5 fully developed leaves were used for experiments. M. persicae were obtained from the laboratory culture maintained at the Department of Botany and Ecology for many generations since 2000. All experiments were carried out under the same conditions of temperature, relative humidity, and photoperiod. The bioassays were started at 10–11.a.m. Each compound was dissolved in 70% ethanol to obtain the recommended 0.1% solution[40]. All compounds were applied on the adaxial and abaxial leaf surfaces by immersing a leaf in the ethanolic solution of a given compound for 30 s.[20]. Control leaves of similar size were immersed in 70% ethanol that was used as a solvent for the studied compounds. Experiments were performed 1 h after the compounds application to allow the evaporation of the solvent. Every plant and aphid were used only once.
This bioassay allows the study of aphid host preferences under semi-natural conditions. In the present study, aphids were given free choice between control and treated excised leaves that were placed in a Petri dish. Aphids were placed in the dish equidistance from treated and untreated leaves, so that aphids could choose between treated (on one half of a Petri dish) and control leaves (on the other half of the dish). […] Each experiment was replicated 8 times (n = 8 replicates, 20 viviparous apterous females/replicate). Aphids that were moving or not on any of the leaves were not counted.
The data of the choice-test were analyzed using Student’s t-test (STATISTICA 13.1. package). […] If aphids settled mainly on the control leaf (p < 0.05), the compound tested in the respective choice-test was stated a deterrent. From the data thus obtained the relative index of deterrence (DI) was calculated: DI = (C − T/C + T) where C was the number of aphids settled on control leaf, T was the number of aphids settled on the leaf treated with the tested compound. The value of DI ranged between 1 (ideal deterrent) and − 1 (ideal attractant)[41].

Row | Compound | IC50 (MV4-11 cells; Homo sapiens, MV4-11) [µM] | Selectivity index SI, MV4-11 (MV4-11 cells) | Mean number of aphids settled on treated (test) leaf (Myzus persicae; 1 h after access) | Mean number of aphids settled on treated (test) leaf (Myzus persicae; 2 h after access) | Mean number of aphids settled on treated (test) leaf (Myzus persicae; 24 h after access) | IC50 (MV4-11 cells) [µM] | Effect on aphid settling behavior (deterrent / attractant) (Myzus persicae)
1 | C=CC(C)(CCCC(C)CCCC(C)CCCC(C)C)CC(=O)O (stereo not drawn) [compound 3, 3,7,11,15-tetramethyl-3-vinylhexadecanoic acid] |  | 3.69 | 8.5 (± 2.1) | 8.9 (± 1.0) | 8.1 (± 1.3) |  | 
2 | CC(C)CCCC(C)CCCC(C)CCC[C@]1(C)CC(=O)O[C@H]1CCl (stereo in doubt) [compound 7, cis-5-chloromethyl-4-methyl-4-(4′,8′,12′-trimethyltridecyl)dihydrofuran-2-one] | 110 ± 41.6 |  | 4.1 (± 1.0) | 3.5 (± 0.7) | 4.8 (± 0.9) |  | 
3 | 3,7,11,15-tetramethylhexadec-2-en-1-ol [Phytol (1), reference compound] |  | 1.25 | 10.4 (± 1.3) | 7.9 (± 1.0) | 6.6 (± 0.9) | 51.4 ± 3.6 | deterrent properties

The next lines start with results.

Row | IC50 (MV4-11 cells; Homo sapiens, MV4-11) [µM] | Compound | Selectivity index SI, MV4-11 (MV4-11 cells) | Mean number of aphids settled on treated (test) leaf (Myzus persicae; 1 h after access) | Mean number of aphids settled on treated (test) leaf (Myzus persicae; 2 h after access) | Mean number of aphids settled on treated (test) leaf (Myzus persicae; 24 h after access) | IC50 (MV4-11 cells) [µM] | Effect on aphid settling behavior (deterrent / attractant) (Myzus persicae)
4 | 46.9 ± 11.7 | CC(C)CCCC(C)CCCC(C)CCC[C@]1(C)CC(=O)O[C@@H]1CBr (stereo in doubt) [compound 4, trans-5-Bromomethyl-4-methyl-4-(4′,8′,12′-trimethyltridecyl)dihydrofuran-2-one] | 7.43 | 2.9 (± 0.7) | 2.4 (± 0.6) | 4.9 (± 1.7) |  | 
5 | 52 ± 13.8 | CC(C)CCCC(C)CCCC(C)CCC[C@]1(C)CC(=O)O[C@H]1CBr (stereo in doubt) [compound 5, cis-5-Bromomethyl-4-methyl-4-(4′,8′,12′-trimethyltridecyl)dihydrofuran-2-one] | 8.15 | 3.4 (± 1.0) | 3.0 (± 1.1) | 5.6 (± 1.4) |  | 
6 | 48.3 ± 19.6 | CC(C)CCCC(C)CCCC(C)CCC[C@]1(C)CC(=O)O[C@@H]1CCl (stereo in doubt) [compound 6, trans-5-Chloromethyl-4-methyl-4-(4′,8′,12′-trimethyltridecyl)dihydrofuran-2-one] | 5.65 | 5.8 (± 1.3) | 4.5 (± 1.1) | 10.0 (± 1.7) |  | attractant properties
